Measured values from patent US20010054579A1, “METHOD OF SEPARATING DIFFERENT CHEMICALS IN A SAMPLE” (priority 1997, published 2001).

What was measured:
Assay type in all cases: physicochemical
[1] = Reversed-phase liquid chromatography retention factor (log k) on pentyl bonded phase; conditions: C5 column; for log k in 80% CH3CN, C5: aqueous 80% acetonitrile at 40° C.
Description: (§1) The inertness and the chemical stability of the synthesized hexyl-phenyl bonded silica gel were studied by looking at the retention factors and peak shapes of pyridine, benzoic acid, 8-hydroxyquinoline, and naphthalene disclosed in T. Hanai, Encyclopedia of Analytical Science (1995), Academic Press, London, p. […] which is hereby incorporated herein by reference. The retention factor, in terms of measured parameters, is “k=(tR−tO)/tO”: where tR is retention time of the measured peak; and to is retention time of non-retained component.
(§2) The retention capacities of alkyl-phenyl bonded silica gels were compared from the retention factors for alkylbenzenes and polycyclic aromatic hydrocarbons (PAH).
(§3) […] The log k values were used for the analysis of hydrophobicity of bonded phases using van der Waals volumes of analytes as the standard.
(§4) The liquid chromatograph was a model HP1090 from Hewlett-Packard (Palo Alto, Calif. USA), and the chemically-bonded silica gel columns, —C18, —C8 and —C5, —C6Ph, —C3Ph, 15 cm×4.6 mm I.D., were from Phenomenex Inc. (Torrance, Calif. USA). Chemicals used were from Aldrich and ChemService. HPLC grade acetonitrile and water were from Fisher Scientific (Tustin, Calif. USA).

[2] = Reversed-phase liquid chromatography retention factor (log k) on octyl bonded phase; conditions: C8 column; for log k in 80% CH3CN, C8: aqueous 80% acetonitrile at 40° C.
Description: as §1, §2, §3, §4

[3] = Reversed-phase liquid chromatography retention factor (log k) on hexyl-phenyl bonded phase; conditions: C6Ph column; for log k in 80% CH3CN, C6Ph: aqueous 80% acetonitrile at 40° C.
Description: as §1, §2, §3, §4

[4] = Reversed-phase liquid chromatography retention factor (log k) on octadecyl bonded phase; conditions: C18 column; for log k in 80% CH3CN, C18: aqueous 80% acetonitrile at 40° C.
Description: as §1, §2, §3, §4

[5] = Reversed-phase liquid chromatography retention factor (log k) on propyl-phenyl bonded phase; conditions: C3Ph column; for log k in 80% CH3CN, C3Ph: aqueous 80% acetonitrile at 40° C.
Description: as §1, §2, §3, §4

Structure (SMILES) | log k in 70% CH3CN, C5 [1] | log k in 70% CH3CN, C8 [2] | log k in 70% CH3CN, C6Ph [3] | log k in 70% CH3CN, C18 [4] | log k in 70% CH3CN, C3Ph [5] | log k in 80% CH3CN, C5 [1] | log k in 80% CH3CN, C8 [2] | log k in 80% CH3CN, C6Ph [3] | log k in 80% CH3CN, C18 [4] | log k in 80% CH3CN, C3Ph [5]
c1ccc2c(c1)Cc1ccccc1-2 [Fluorene] | 0.527 | 0.629 | 0.602 | 0.794 | 0.436 | – | – | – | – | –
c1ccc2cc3c(ccc4ccccc43)cc2c1 [Benzo(a)anthracene] | 0.692 | 0.860 | 0.878 | 1.177 | 0.647 | – | – | – | – | –
CCCCCCCc1ccccc1 [Heptylbenzene] | 1.019 | 1.181 | 0.985 | 1.491 | 0.851 | 0.794 | 0.937 | 0.667 | 1.188 | 0.512
CCCCc1ccccc1 [Butylbenzene] | 0.653 | 0.776 | 0.648 | 0.963 | 0.548 | 0.462 | 0.561 | 0.391 | 0.702 | 0.274
c1ccc2ccccc2c1 [Naphthalene] | 0.410 | 0.486 | 0.470 | 0.582 | 0.305 | – | – | – | – | –
c1ccc2c(c1)-c1cccc3c1c-2cc1ccccc13 [Benzo(b)fluoranthene] | 0.741 | 0.943 | 0.970 | 1.325 | 0.714 | – | – | – | – | –
c1ccc2c(c1)ccc1cc3c(ccc4ccccc43)cc12 [Dibenzo(a,h)anthracene] | 0.803 | 1.032 | 1.071 | 1.479 | 0.806 | – | – | – | – | –
c1ccc2c(c1)cc1ccc3cccc4ccc2c1c34 [Benzo(a)pyrene] | 0.755 | 0.071 | 1.009 | 1.375 | 0.733 | – | – | – | – | –
c1cc2c3c(cccc3c1)CC2 [Acenaphthene] | – | 0.629 | 0.616 | 0.814 | 0.447 | – | – | – | – | –
C1=Cc2cccc3cccc1c23 [Acenaphthylene] | 0.450 | 0.540 | 0.521 | 0.663 | 0.364 | – | – | – | – | –
CCCCCCCCc1ccccc1 [Octylbenzene] | 1.144 | 1.318 | 1.095 | 1.673 | 0.947 | 0.906 | 1.063 | 0.757 | 1.356 | 0.589
c1cc2ccc3cccc4ccc(c1)c2c34 [Pyrene] | 0.614 | 0.777 | 0.778 | 1.038 | 0.553 | – | – | – | – | –
CCCc1ccccc1 [Propylbenzene] | 0.537 | 0.644 | 0.538 | 0.800 | 0.449 | 0.362 | 0.442 | 0.303 | 0.548 | 0.196
c1ccc2c(c1)-c1cccc3cccc-2c13 [Fluoranthene] | 0.599 | 0.747 | 0.746 | 0.989 | 0.535 | – | – | – | – | –
c1ccc2c(c1)-c1ccc3ccc4cccc5cc-2c1c3c45 [Indeno(1,2,3 cd)pyrene] | 0.822 | 1.067 | 1.102 | – | 0.803 | – | – | – | – | –
CCCCCCCCCCc1ccccc1 [Decylbenzene] | 1.400 | – | 1.313 | – | 1.146 | 1.139 | 1.324 | 0.941 | 1.697 | 0.748
c1ccc2cc3c(cc2c1)-c1cccc2cccc-3c12 [Benzo(k)fluoranthene] | 0.741 | 0.959 | 0.982 | 1.347 | 0.726 | – | – | – | – | –
CCc1ccccc1 [Ethylbenzene] | 0.417 | 0.513 | 0.428 | 0.628 | 0.348 | 0.258 | 0.324 | 0.215 | 0.394 | 0.121
c1cc2ccc3ccc4ccc5cccc6c(c1)c2c3c4c56 [Benzo(g,h,i)perylene] | 0.822 | 1.067 | 1.118 | – | 0.799 | – | – | – | – | –
c1ccccc1 [Benzene] | 0.209 | 0.281 | 0.230 | 0.340 | 0.167 | – | – | – | – | –
c1ccc2cc3ccccc3cc2c1 [Anthracene] | 0.562 | 0.688 | 0.679 | 0.894 | 0.490 | – | – | – | – | –
CCCCCCCCCc1ccccc1 [Nonylbenzene] | 1.271 | 1.457 | 1.204 | – | 1.046 | 1.022 | 1.193 | 0.849 | 1.528 | 0.668
CCCCCCc1ccccc1 [Hexylbenzene] | 0.894 | 1.043 | 0.871 | 1.310 | 0.747 | 0.679 | 0.806 | 0.572 | 1.021 | 0.430
c1ccc2c(c1)ccc1c3ccccc3ccc21 [Chrysene] | 0.673 | 0.842 | 0.869 | 1.160 | 0.635 | – | – | – | – | –
CCCCCc1ccccc1 [Pentylbenzene] | 0.772 | 0.908 | 0.758 | 1.134 | 0.646 | 0.567 | 0.680 | 0.480 | 0.858 | 0.350
c1ccc2c(c1)ccc1ccccc12 [Phenanthrene] | 0.538 | 0.660 | 0.655 | 0.854 | 0.468 | – | – | – | – | –
